Values joined by “and” are separate entries in the source; they are usually repeats but may differ in a detail not shown here. Identical values can stand only once. Toxic doses and inconclusive results are not listed. Cut-off read from the data, not from the text of the source: active = T/C of 150% or more; inactive = T/C below 125%.
Test system: L1210 leukemia ip in BDF1 mice, survival T/C
Test: NCI In Vivo Anticancer Drug Screen. Data for tumor model L1210 Leukemia (intraperitoneal) in B6D2F1 (BDF1) mice
Conditions: endpoint: mean survival time, higher = longer survival
Method in brief: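 Mice bearing the transplanted tumor received compound or vehicle. Survival of the treated group was divided by that of the vehicle-treated control group to give the ratio.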

[1] = dose: 100.0 mg/kg/injection, schedule: Q01DX009 (ip), vehicle: Klucel (hydroxypropylcellulose) (HPC)
[2] = dose: 200.0 mg/kg/injection, schedule: Q01DX009 (ip), vehicle: Klucel (hydroxypropylcellulose) (HPC)
[3] = dose: 400.0 mg/kg/injection, schedule: Q01DX009 (ip), vehicle: Klucel (hydroxypropylcellulose) (HPC)
[4] = dose: 50.0 mg/kg/injection, schedule: Q01DX009 (ip), vehicle: saline
[5] = dose: 100.0 mg/kg/injection, schedule: Q01DX009 (ip), vehicle: saline
[6] = dose: 200.0 mg/kg/injection, schedule: Q01DX Z (ip), vehicle: saline
[7] = dose: 100.0 mg/kg/injection, schedule: Q04DX003 (ip), vehicle: saline with Tween-80
[8] = dose: 200.0 mg/kg/injection, schedule: Q04DX003 (ip), vehicle: saline with Tween-80
[9] = dose: 400.0 mg/kg/injection, schedule: Q04DX003 (ip), vehicle: saline with Tween-80
[10] = dose: 100.0 mg/kg/injection, schedule: Q01DX001 (ip), vehicle: Klucel (hydroxypropylcellulose) (HPC)
[11] = dose: 200.0 mg/kg/injection, schedule: Q01DX001 (ip), vehicle: Klucel (hydroxypropylcellulose) (HPC)
[12] = dose: 100.0 mg/kg/injection, schedule: Q04DX003 (ip), vehicle: Klucel (hydroxypropylcellulose) (HPC)
[13] = dose: 200.0 mg/kg/injection, schedule: Q04DX003 (ip), vehicle: Klucel (hydroxypropylcellulose) (HPC)
[14] = dose: 400.0 mg/kg/injection, schedule: Q04DX003 (ip), vehicle: Klucel (hydroxypropylcellulose) (HPC)

Measured: T/C

CC/C(=N/N=C(N)N)C(=O)O
inactive: dose: 15.0 mg/kg/injection, schedule: Q01DX Z (ip), vehicle: carboxymethylcellulose (CMC) 102 % of control | dose: 30.0 mg/kg/injection, schedule: Q01DX Z (ip), vehicle: carboxymethylcellulose (CMC) 95 % of control | dose: 60.0 mg/kg/injection, schedule: Q01DX Z (ip), vehicle: carboxymethylcellulose (CMC) 103 % of control and 106 % of control | dose: 120.0 mg/kg/injection, schedule: Q01DX Z (ip), vehicle: carboxymethylcellulose (CMC) 96 % of control and 98 % of control | dose: 240.0 mg/kg/injection, schedule: Q01DX Z (ip), vehicle: carboxymethylcellulose (CMC) 100 % of control | dose: 480.0 mg/kg/injection, schedule: Q01DX Z (ip), vehicle: carboxymethylcellulose (CMC) 102 % of control

c1ccc(C2c3ccccc3C(c3ccccc3)(c3ccccc3)c3ccccc32)cc1
inactive: dose: 100.0 mg/kg/injection, schedule: Q01DX001 (ip), vehicle: other 91 % of control | dose: 200.0 mg/kg/injection, schedule: Q01DX001 (ip), vehicle: other 91 % of control | dose: 400.0 mg/kg/injection, schedule: Q01DX001 (ip), vehicle: other 91 % of control

c1ccc(C/C(N=Nc2ccccc2)=N\Nc2ccccc2)cc1
inactive: dose: 50.0 mg/kg/injection, schedule: Q01DX009 (ip), vehicle: Klucel (hydroxypropylcellulose) (HPC) 92 % of control | [1] 92 % of control | [2] 91 % of control | [3] 105 % of control

Cc1ccc(S(=O)(=O)OC2CCN(C)CC2)cc1
inactive: dose: 6.0 mg/kg/injection, schedule: Q01DX009 (ip), vehicle: saline 91 % of control | dose: 12.0 mg/kg/injection, schedule: Q01DX009 (ip), vehicle: saline 93 % of control | dose: 12.0 mg/kg/injection, schedule: Q04DX003 (ip), vehicle: saline 102 % of control | dose: 25.0 mg/kg/injection, schedule: Q01DX005 (ip), vehicle: saline 97 % of control | dose: 25.0 mg/kg/injection, schedule: Q01DX009 (ip), vehicle: saline 93 % of control and 94 % of control | dose: 25.0 mg/kg/injection, schedule: Q04DX003 (ip), vehicle: saline 96 % of control | dose: 50.0 mg/kg/injection, schedule: Q01DX005 (ip), vehicle: saline 97 % of control | [4] 96 % of control | dose: 100.0 mg/kg/injection, schedule: Q01DX005 (ip), vehicle: saline 97 % of control and 99 % of control | [5] 112 % of control

CSc1ccc(NC(=O)CCCc2ccc(N(CCCl)CCCl)cc2)cc1
inactive: dose: 4.0 mg/kg/injection, schedule: Q12HX018 (ip), vehicle: other 103 % of control | dose: 6.0 mg/kg/injection, schedule: Q12HX018 (ip), vehicle: other 108 % of control | dose: 8.0 mg/kg/injection, schedule: Q12HX018 (ip), vehicle: other 115 % of control

CCC(=O)C(CC(C)[N+](C)(C)C)(c1ccccc1)c1ccccc1 (centres undefined)
inactive: dose: 100.0 mg/kg/injection, schedule: Q01DX001 (ip), vehicle: carboxymethylcellulose (CMC) 92 % of control

CCCC/C=N\NC(=S)NCCCCCCCCCCCCCCCCCC
inactive: [6] 94 % of control | dose: 300.0 mg/kg/injection, schedule: Q01DX Z (ip), vehicle: saline 103 % of control | dose: 450.0 mg/kg/injection, schedule: Q01DX Z (ip), vehicle: saline 95 % of control | dose: 675.0 mg/kg/injection, schedule: Q01DX Z (ip), vehicle: saline 90 % of control

COC(=O)CCC(=O)Nc1ccccc1
inactive: [7] 101 % of control | [8] 95 % of control | [9] 95 % of control

CNC(=O)Oc1ccc(C=Nc2cccc([N+](=O)[O-])c2)cc1
inactive: [1] 101 % of control | [2] 95 % of control | [3] 100 % of control

COc1ccc(/C=C(\S)C(=O)O)cc1
inactive: dose: 100.0 mg/kg/injection, schedule: Q01DX001 (ip), vehicle: saline 96 % of control | dose: 200.0 mg/kg/injection, schedule: Q01DX001 (ip), vehicle: saline 118 % of control | dose: 1040.0 mg/kg/injection, schedule: Q01DX001 (ip), vehicle: saline 111 % of control

O=Cc1ccc(C(=O)O)cc1O
inactive: [7] 98 % of control | [8] 102 % of control

CCC(C)C(=Nc1ccc(Cl)c(Cl)c1)N(C)C (centres undefined)
inactive: dose: 55.0 mg/kg/injection, schedule: Q01DX Z (ip), vehicle: methylcellulose (MC) 102 % of control | dose: 83.0 mg/kg/injection, schedule: Q01DX Z (ip), vehicle: methylcellulose (MC) 96 % of control | dose: 125.0 mg/kg/injection, schedule: Q01DX Z (ip), vehicle: methylcellulose (MC) 104 % of control

O=C(CCl)NCc1ccc([N+](=O)[O-])cc1
inactive: dose: 50.0 mg/kg/injection, schedule: Q01DX001 (ip), vehicle: Klucel (hydroxypropylcellulose) (HPC) 100 % of control | [10] 103 % of control | [11] 101 % of control

CCSCCOc1c(C(C)(C)C)cc([N+](=O)[O-])c(C)c1[N+](=O)[O-]
inactive: dose: 100.0 mg/kg/injection, schedule: Q04DX002 (ip), vehicle: saline 103 % of control | dose: 200.0 mg/kg/injection, schedule: Q04DX002 (ip), vehicle: saline 100 % of control | dose: 400.0 mg/kg/injection, schedule: Q04DX002 (ip), vehicle: saline 106 % of control

CCCC1(CC)CNC(=O)NC1=O (centres undefined)
inactive: dose: 100.0 mg/kg/injection, schedule: Q01DX Z (ip), vehicle: saline 97 % of control | [6] 92 % of control

CCOc1ccc(C(=O)Cc2ccccc2)cc1
inactive: [7] 89 % of control | [8] 86 % of control | [9] 91 % of control

N#CCCCCn1ccc(=O)[nH]c1=O
inactive: dose: 45.0 mg/kg/injection, schedule: Q01DX009 (ip), vehicle: Klucel (hydroxypropylcellulose) (HPC) 92 % of control | dose: 90.0 mg/kg/injection, schedule: Q01DX009 (ip), vehicle: Klucel (hydroxypropylcellulose) (HPC) 104 % of control | [12] 100 % of control | dose: 180.0 mg/kg/injection, schedule: Q01DX009 (ip), vehicle: Klucel (hydroxypropylcellulose) (HPC) 98 % of control | [13] 102 % of control | dose: 360.0 mg/kg/injection, schedule: Q01DX009 (ip), vehicle: Klucel (hydroxypropylcellulose) (HPC) 93 % of control | [14] 96 % of control

O=C1Nc2ccccc2C1=Nc1ccc(S(=O)(=O)Nc2nccs2)cc1
inactive: dose: 75.0 mg/kg/injection, schedule: Q01DX001 (ip), vehicle: saline 89 % of control | dose: 150.0 mg/kg/injection, schedule: Q01DX001 (ip), vehicle: saline 86 % of control | dose: 300.0 mg/kg/injection, schedule: Q01DX001 (ip), vehicle: saline 86 % of control

CN1CCC(CC(=O)O)CC1
inactive: [4] 92 % of control | [5] 92 % of control | dose: 200.0 mg/kg/injection, schedule: Q01DX009 (ip), vehicle: saline 111 % of control

CC(N)c1ccccc1 (centres undefined) (tested in a mixture with another compound)
inactive: [4] 87 % of control | [5] 90 % of control

CCOC(=O)CCC(NC(=O)c1ccc(NC)c([N+](=O)[O-])c1)C(=O)OCC (centres undefined)
inactive: [12] 98 % of control | [13] 100 % of control | [14] 96 % of control

O=C(NCCNCc1ccccc1)c1ccccc1
inactive: dose: 25.0 mg/kg/injection, schedule: Q01DX009 (ip), vehicle: water 97 % of control | dose: 25.0 mg/kg/injection, schedule: Q04DX003 (ip), vehicle: water 96 % of control | dose: 50.0 mg/kg/injection, schedule: Q01DX009 (ip), vehicle: water 98 % of control | dose: 50.0 mg/kg/injection, schedule: Q04DX003 (ip), vehicle: water 107 % of control | [7] 108 % of control | dose: 100.0 mg/kg/injection, schedule: Q04DX003 (ip), vehicle: water 92 % of control

COc1ccc([N+](=O)[O-])cc1NC(=O)COc1cc(Cl)c(Cl)cc1Cl
inactive: [1] 94 % of control | [2] 108 % of control | [3] 94 % of control

CCN(C(=S)c1ccc(OC)cc1)c1cccc(C)c1
inactive: dose: 75.0 mg/kg/injection, schedule: Q04DX003 (ip), vehicle: Klucel (hydroxypropylcellulose) (HPC) 94 % of control | [10] 103 % of control | dose: 150.0 mg/kg/injection, schedule: Q04DX003 (ip), vehicle: Klucel (hydroxypropylcellulose) (HPC) 111 % of control | [11] 97 % of control | dose: 300.0 mg/kg/injection, schedule: Q04DX003 (ip), vehicle: Klucel (hydroxypropylcellulose) (HPC) 100 % of control | dose: 400.0 mg/kg/injection, schedule: Q01DX001 (ip), vehicle: Klucel (hydroxypropylcellulose) (HPC) 96 % of control

Source: PubChem BioAssay AID248 (DTP/NCI, 2004)
